# Key:
# [1] = Solubility of 25HC3S in 10 mM sodium phosphate buffer pH 7.6 with HPbCD at 5, 15 and 25°C; type: physicochemical
# Description: A total of five suspensions of 25HC3S were prepared in 10 mM sodium phosphate buffer at pH 7.6 containing 0, 50, 100, 250 and 400 mg/mL HPbCD. The suspensions were initially sonicated and then stirred. Each suspension (40 mL for the suspension without HPbCD and 20 mL for the remaining suspensions) was then equally divided into 3 vials and stored in 5° C., 15° C. and 25° C./60% relative humidity (RH) stability chambers.
# Each suspension was stirred constantly in the stability chambers by a small spin bar and electronic stirrer. At day 1 and day 3, half of each suspension (approximately 6 mL for the sample without HPbCD and 3 mL for the rest of the suspensions with HPbCD) was withdrawn from the vial with a 3 or 5 mL disposable syringe. A syringe filter was then attached to the syringe for filtration of the suspensions. To minimize sample temperature changes during filtration, the syringe and filter were equilibrated at the respective stability chamber temperatures before their use. Approximately 3 mL of the filtrate for the sample without HPbCD and 1 mL of the filtrate for the remaining suspensions in HPbCD were discarded to ensure that the filter membrane was sufficiently saturated with 25HC3S to prevent absorption of the drug from the remaining filtrate. Then approximately 0.5 mL to 1.5 mL of filtrate was collected for HPLC analysis. At day 3, the remaining filtered portions were measured for pH. Reverse phase HPLC was used for measuring the concentration of 25HC3S in the solubility samples.
# [2] = system: liver function markers ALT, AST, ALK, LDH; test: Liver function markers in serum of mice overdosed with APAP (350 mg/kg); type: in vivo, C57BL/6J mice; conditions: vehicle plus 25 mg/kg 25HC3S 0.5 hours after overdose, 24 hours after treatment
# Description: The ability of 25HC3S to treat symptoms of APAP overdose was examined. 12-week-old male C57BL/6J mice were fasted overnight and injected (intraperitoneally) with APAP: 600 mg/kg (high dose) for mortality studies or 350 mg/kg (low dose) for liver function and gene studies. Control mice received only vehicle (20% (v/v) a propylene glycol, 4% (w/v) cyclodextrin (powdered hydroxypropyl beta cyclodextrin in sterile 10% (w/v) glucose.
# A composition comprising 25 mg/kg of 25HC3S sodium salt in vehicle was administered intravenously to the experimental mice 0.5 hours after APAP administration. Mortality was monitored in the high dose mice. In the low dose mice, the liver function markers aspartate aminotransferase (AST), alanine aminotransferase (ALT), alkaline phosphatase (ALK) and lactate dehydrogenase (LDH), were measured in serum. Impacts on gene expression were determined by Quantitative Real-time PCR. Membrane potentials were measured using JC1 staining and flow cytometry.
# One group of low dose mice received treatment with 25HC3S in vehicle 0.5 hours after the overdose. In this group, liver function markers were assessed 24 hours after treatment. […] However, in mice treated with vehicle alone, the values were […] and in mice treated with vehicle plus 25 mg/kg of 25HC3S, the values were near normal. The differences in the measured values were statistically significant.
# [3] = system: CLP surgery-induced sepsis model; test: Survival in rodent model of surgically-induced sepsis (cecum ligation puncture); type: in vivo, CD rats; conditions: 30 mg/kg sc within 30 minutes after surgery, end of study (3 days or 72 hours), N=5
# Description: The subjects for the study were 10 male CD rats (12-13 weeks of age, 400-450 g).
# A solution formulation of 25HC3S sodium salt and its respective vehicle was used for the study. The Vehicle was a solution of 40 mg/mL hydroxypropyl betadex with 10 mM sodium phosphate buffer in 70% (v/v) of 0.9% (w/v) sodium chloride and 30% (v/v) of sterile water. 25HC3S sodium salt was pre-dissolved into the Vehicle solution to result in a drug concentration of 5 mg/mL. The 25HC3S solution was ready-to-use at the start of dosing. Both the vehicle and 25HC3S solution were stored at room temperature. Before dosing, the 25HC3S solution was confirmed to be clear and void of any precipitation. Otherwise, if precipitation was observed, the solution was to be sonicated at room temperature for 10 minutes to dissolve particulates.
# The CLP procedure is an established and widely-used approach to investigate the progression and characteristics of clinical sepsis. On the day of surgery, animals were weighed and monitored for their baseline temperature. Animals were anesthetized with isoflurane and depth of anesthesia was checked by toe-pinching. Dipyrone (an analgesic) was given subcutaneously prior to surgery. […]
# Rats were monitored for survival for 3 days after CLP surgery and 25HC3S treatment. […]
# Animals were monitored for mortality, “clinical signs” and pain level. […]
# [4] = human, in vivo
# Description: This example describes a randomized, double-blind, placebo-controlled, safety and pharmacokinetic study of a parenteral formulation of 25HC3S. The study involved the administration of 25HC3S sodium salt to healthy subjects via intramuscular injections (IM) as i) single ascending doses (SAD) in the range of 30-300 mg and as ii) a multiple ascending dose (MAD) study using multiple IM doses of 150 mg administered daily for 5 days (see Table 13). All subjects were male, with an age range of 19-36 years.
# In Part A of the study (SAD), a parenteral dose of 25HC3S or matching placebo was administered intramuscularly (IM) to cohorts of 6 healthy subjects (4 randomized to 25HC3S and two randomized to matching placebo on a double-blind basis). The initial dose was 30 mg and subsequent cohorts of 6 different subjects received doses of 90, 150, and 300 mg of 25HC3S. A total of 16 subjects received 25HC3S and 8 received placebo in Part A. In Part B (MAD), a parenteral dose of 150 mg 25HC3S or matching placebo was administered IM once daily for 5 days, altering injection sites, to a single cohort of 10 healthy subjects (8 randomized to 25HC3S and two randomized to matching placebo on a double-blind basis; see Table 14).
# Safety assessments included periodic monitoring of routine vital signs, safety laboratory tests and 12 lead ECG collection. Subjects completed a screening phase, treatment and an end-of-study visit. Dose escalation to the next dose level in Part I and Part II of the study was undertaken following review of the preceding dose results.
# Pain intensity (measured on a 0-10 numeric rating scale) was assessed after each injection, and the injection sites were examined for tenderness, redness, bruising, swelling and induration at specified time points after injection.
compound,measurement,setting,value
"C[C@H](CCCC(C)(C)O)[C@H]1CC[C@H]2[C@@H]3CC=C4C[C@@H](OS(=O)(=O)[O-])CC[C@]4(C)[C@H]3CC[C@]12C.[Na+] [25HC3S, 5-cholesten-3, 25-diol, 3-sulfate]",pH of Filtrate Day 3,"[1]; 5°C, HPbCD 0 mg/mL",7.62
same,pH of Filtrate Day 3,"[1]; 5°C, HPbCD 50 mg/mL",7.70
same,Solubility at Day 3,"[1]; 5°C, HPbCD 50 mg/mL, phosphate buffer pH 7.6",9.32 mg/mL
same,pH of Filtrate Day 3,"[1]; 5°C, HPbCD 100 mg/mL",7.80
same,Solubility at Day 3,"[1]; 5°C, HPbCD 100 mg/mL, phosphate buffer pH 7.6",18.31 mg/mL
same,pH of Filtrate Day 3,"[1]; 5°C, HPbCD 250 mg/mL",8.06
same,Solubility at Day 3,"[1]; 5°C, HPbCD 250 mg/mL, phosphate buffer pH 7.6",42.80 mg/mL
same,pH of Filtrate Day 3,"[1]; 5°C, HPbCD 400 mg/mL",8.42
same,Solubility at Day 3,"[1]; 5°C, HPbCD 400 mg/mL, phosphate buffer pH 7.6",66.89 mg/mL
same,pH of Filtrate Day 3,"[1]; 15°C, HPbCD 0 mg/mL",7.59
same,pH of Filtrate Day 3,"[1]; 15°C, HPbCD 50 mg/mL",7.77
same,Solubility at Day 3,"[1]; 15°C, HPbCD 50 mg/mL, phosphate buffer pH 7.6",9.50 mg/mL
same,pH of Filtrate Day 3,"[1]; 15°C, HPbCD 100 mg/mL",7.98
same,Solubility at Day 3,"[1]; 15°C, HPbCD 100 mg/mL, phosphate buffer pH 7.6",18.51 mg/mL
same,pH of Filtrate Day 3,"[1]; 15°C, HPbCD 250 mg/mL",8.07
same,Solubility at Day 3,"[1]; 15°C, HPbCD 250 mg/mL, phosphate buffer pH 7.6",43.79 mg/mL
same,pH of Filtrate Day 3,"[1]; 15°C, HPbCD 400 mg/mL",8.26
same,Solubility at Day 3,"[1]; 15°C, HPbCD 400 mg/mL, phosphate buffer pH 7.6",68.10 mg/mL
same,Solubility at Day 3,"[1]; 25°C/60% RH, HPbCD 0 mg/mL, phosphate buffer pH 7.6, centrifuged sample",0.006^1 mg/mL
same,pH of Filtrate Day 3,"[1]; 25°C/60% RH, HPbCD 50 mg/mL",7.65
same,Solubility at Day 3,"[1]; 25°C/60% RH, HPbCD 50 mg/mL, phosphate buffer pH 7.6",9.90 mg/mL
same,Solubility at Day 3,"[1]; 25°C/60% RH, HPbCD 100 mg/mL, phosphate buffer pH 7.6",18.33 mg/mL
same,pH of Filtrate Day 3,"[1]; 25°C/60% RH, HPbCD 100 mg/mL, supernatant",7.672
same,Solubility at Day 3,"[1]; 25°C/60% RH, HPbCD 250 mg/mL, phosphate buffer pH 7.6",42.37 mg/mL
same,Solubility at Day 3,"[1]; 25°C/60% RH, HPbCD 400 mg/mL, phosphate buffer pH 7.6",70.80 mg/mL
same,pH of Filtrate Day 3,"[1]; 25°C/60% RH, HPbCD 400 mg/mL, supernatant",8.342
same,temperature dependence of solubility in the presence of HPbCD,[1]; between 5°C and 25°C,not temperature dependent
same,"liver function markers ALT, AST and LDH",[2],near normal
same,rats that had died,[3],60%
same,first time point with detectable drug levels,[4],0.5 h
same,mean pain intensity (0-10 numeric rating scale),[4],0.8-3.5
same,time by which pain had resolved after injection,[4],≤ 1 h
same,time of maximal pain intensity after injection,[4],5 to 10 min
